Results: patent US11254640B2, “N-substituted indoles and other heterocycles for treating brain disorders” (The Regents of the University of California, priority 2019, dated 2022)
pEC50: −log10 of the molar value.

Each compound was assayed on 5HT2A sensor (assay: 5HT2A sensor assay, agonist mode (sLight1.3s HEK293T stable line)). Details: 100 nM compound; percent relative to 5-HT at 100 uM.
Type: cell-based
Procedure: In some embodiments, hallucinogenic potential of a compound of the present invention is determined in vitro. In some embodiments, hallucinogenic potential of a compound of the present invention is determined using a 5HT2A sensor assay. In some embodiments, the 5HT2A sensor assay is in an agonist mode or an antagonist mode. In some embodiments, the 5HT2A sensor assay is in an agonist mode.
(§1) 5HT2A Sensor Assays. HEK293T (ATCC) 5HT2A sensor stable line (sLight1.3s) was generated via lentiviral transduction of HIV-EF1α-sLight1.3 and propagated from a single colony. Lentivirus was produced using 2nd generation lentiviral plasmids pHIV-EF1α-sLight1.3, pHCMV-G, and pCMV-deltaR8.2.
(§2) For the screening of the 41 compounds, sLight1.3s cells were plated in 96-well plates at a density of 40000 24-hours prior to imaging. On the day of imaging, compounds solubilized in DMSO were diluted from the 100 mM stock solution to working concentrations of 1 mM, 100 μM and 1 μM with a DMSO concentration of 1%. Immediately prior to imaging, cells growing in DMEM (Gibco) were washed 2× with HBSS (Gibco) and in agonist mode 180 μL of HBSS or in antagonist mode 160 μL of HBSS was added to each well after the final wash. For agonist mode, images were taken before and after the addition of the 20 μL compound working solution into the wells containing 180 μL HBSS. This produced final compound concentrations of 100 μM, 10 μM and 100 nM with a DMSO concentration of 0.1%. For antagonist mode, images were taken before and after addition of 20 μL of 900 nM 5-HT and again after 20 μL of the compound working solutions to produce final concentrations of 100 nM for 5HT and 100 μM, 10 μM and 100 nM for the compounds with a DMSO concentration of 0.1%. Each compound was tested in triplicates (3 wells) for each concentration (100 μM, 10 μM and 100 nM). Additionally, within each plate, 100 nM 5HT and 0.1% DMSO controls were also imaged.
(§3) Imaging was performed using the Leica DMi8 inverted microscope with a 40× objective using the FITC preset with an excitation of 460 nm and emission of 512-542 nm. For each well, the cellular membrane where the 5HT2A sensor is targeted was autofocused using the adaptive focus controls and 5 images from different regions within the well were taken with each image processed from a 2×2 binning.
(§4) For data processing, the membranes from each image was segmented and analyzed using a custom algorithm written in MATLAB producing a single raw fluorescence intensity value. For each well the 5 raw fluorescence intensity values generated from the 5 images were averaged and the change in fluorescence intensity (dFF) was calculated as: dFF=(Fsat−Fapo)/Fapo
(§5) For both agonist and antagonist modes, the fluorescence intensity values before compound addition in HBSS only were used as the Fapo values while the fluorescence intensity values after compound addition were used as the Fsat values.
(§6) For agonist mode, data are as percent activation relative to 5HT, where 0 is the average of the DMSO wells and 100 is the average of the 100 uM 5HT wells. For antagonist mode, the inactivation score was calculated as: Inactivation score=(dFFF(Compound+5HT)−dFF(5HT))/dFF(5HT)

SMILES | 5HT2A Agonist mean @ 100 nM (%)
COc1ccc2c(ccn2CCN2CCCC2)c1 [Example 44, 5-methoxy-1-(2-(pyrrolidin-1-yl)ethyl)-1H-indole] | B (does not activate 5HT2A sensor assay in agonist mode)
COc1ccc2c(ccn2CCN2CCCCC2)c1 [Example 45, 5-methoxy-1-(2-(piperidin-1-yl)ethyl)-1H-indole] | B (does not activate 5HT2A sensor assay in agonist mode)
COc1ccc2c(ccn2CCN2CCOCC2)c1 [Example 46, 4-(2-(5-methoxy-1H-indol-1-yl)ethyl)morpholine] | B (does not activate 5HT2A sensor assay in agonist mode)

Same assay, conditions: 10 μM compound; percent relative to 5-HT at 100 uM

SMILES | 5HT2A Agonist mean @ 10 μM (%)
COc1ccc2c(ccn2CCN2CCCC2)c1 [Example 44, 5-methoxy-1-(2-(pyrrolidin-1-yl)ethyl)-1H-indole] | B (does not activate 5HT2A sensor assay in agonist mode)
COc1ccc2c(ccn2CCN2CCCCC2)c1 [Example 45, 5-methoxy-1-(2-(piperidin-1-yl)ethyl)-1H-indole] | B (does not activate 5HT2A sensor assay in agonist mode)
COc1ccc2c(ccn2CCN2CCOCC2)c1 [Example 46, 4-(2-(5-methoxy-1H-indol-1-yl)ethyl)morpholine] | B (does not activate 5HT2A sensor assay in agonist mode)

Same assay, conditions: 100 μM compound; percent relative to 5-HT at 100 uM

SMILES | 5HT2A Agonist mean @ 100 μM (%)
COc1ccc2c(ccn2CCN2CCCC2)c1 [Example 44, 5-methoxy-1-(2-(pyrrolidin-1-yl)ethyl)-1H-indole] | B (does not activate 5HT2A sensor assay in agonist mode)
COc1ccc2c(ccn2CCN2CCCCC2)c1 [Example 45, 5-methoxy-1-(2-(piperidin-1-yl)ethyl)-1H-indole] | B (does not activate 5HT2A sensor assay in agonist mode)
COc1ccc2c(ccn2CCN2CCOCC2)c1 [Example 46, 4-(2-(5-methoxy-1H-indol-1-yl)ethyl)morpholine] | B (does not activate 5HT2A sensor assay in agonist mode)

These compounds were tested on rat cortical neurons (assay: Neurite outgrowth assay). Details: Cortical neurone, 1 hour treatment at DIV 4, analysed DIV 7, fold vs DMSO control, read-out: Neurite Average Length @ 10 μM.
Type: cell-based
Text: Neurite outgrowth assay. Changes in the pattern of neurite outgrowth have been implicated in neurodegenerative disorders as well as traumatic injuries. The discovery of new compounds that can positively affect neuritogenesis are important for developing new therapeutics for neurological diseases. Measurement of neurite outgrowth of rat cortical neurons using an automated image-based assay was used to determine the neuroplastic effects of the compounds of the present invention. In some embodiments, a compound of the present invention increases the pattern of neurite outgrowth. In some embodiments, a compound of the present invention increases neurite average length compared to a control. In some embodiments, a compound of the present invention increases neurite branch points compared to a control. In some embodiments, a compound of the present invention increases neurite average length and neurite branch points compared to a control.
Neurite Outgrowth Assay. Rat cortical neurons (20,000 cells/well) were freshly isolated from embryonic day 18 rats and cultured in Neurobasal Medium (+B27). The cultured cells were plated in 96 well-plates (avoiding external wells). At DIV 4, the neurons were treated with compound or control (10 μM) for 1 hour followed by complete washout of the compound. At DIV 7, the neurons were analyzed. The experiments were performed in triplicate. Neurite outgrowth was measured analyzing the following parameters: Number of Cell Bodies, total neurite length (pixels), Root Count, Segments, Extremities Count and node points. Changes in the pattern of neurite outgrowth of the neurons were analyzed by immunocytochemistry against β-III-tubulin. Pictures were acquired by the CellInsight CX7 from Thermo Fisher and analyzed using its software. Results generated in the equipment were maximum neurite length, extremity count, root count, dendrite branch points, and total neurite length. The results were compared to DMSO control, representing the fold-change in neuronal outgrowth.

SMILES | fold induction at 10 µM
COc1ccc2c(ccn2CCN2CCCC2)c1 [Example 44, 5-methoxy-1-(2-(pyrrolidin-1-yl)ethyl)-1H-indole] | 1.5 to 3
COc1ccc2c(ccn2CCN2CCCCC2)c1 [Example 45, 5-methoxy-1-(2-(piperidin-1-yl)ethyl)-1H-indole] | 1.5 to 3
COc1ccc2c(ccn2CCN2CCOCC2)c1 [Example 46, 4-(2-(5-methoxy-1H-indol-1-yl)ethyl)morpholine] | 1.5 to 3

Same assay, conditions: Cortical neurone, 1 hour treatment at DIV 4, analysed DIV 7, fold vs DMSO control, read-out: Neurite Branch Points: @ 10 μM

SMILES | fold induction at 10 µM
COc1ccc2c(ccn2CCN2CCCC2)c1 [Example 44, 5-methoxy-1-(2-(pyrrolidin-1-yl)ethyl)-1H-indole] | > 3
COc1ccc2c(ccn2CCN2CCCCC2)c1 [Example 45, 5-methoxy-1-(2-(piperidin-1-yl)ethyl)-1H-indole] | 1.5 to 3
COc1ccc2c(ccn2CCN2CCOCC2)c1 [Example 46, 4-(2-(5-methoxy-1H-indol-1-yl)ethyl)morpholine] | 1.5 to 3

The compounds below were run on 5HT2A sensor (assay: 5HT2A sensor assay, antagonist mode (sLight1.3s HEK293T stable line)). Details: 100 nM compound; relative to 5-HT at 100 nM.
Type: cell-based
Procedure: In some embodiments, the 5HT2A sensor assay is in an antagonist mode.
as §1, §2, §3, §4, §5, §6

SMILES | 5HT2A Antagonist mean @ 100 nM (%)
COc1ccc2c(ccn2CCN2CCCC2)c1 [Example 44, 5-methoxy-1-(2-(pyrrolidin-1-yl)ethyl)-1H-indole] | C (inhibits 5HT response by <75%)
COc1ccc2c(ccn2CCN2CCCCC2)c1 [Example 45, 5-methoxy-1-(2-(piperidin-1-yl)ethyl)-1H-indole] | A (inhibits 5HT response by >100%)
COc1ccc2c(ccn2CCN2CCOCC2)c1 [Example 46, 4-(2-(5-methoxy-1H-indol-1-yl)ethyl)morpholine] | A (inhibits 5HT response by >100%)

Same assay, conditions: 10 μM compound; relative to 5-HT at 100 nM

SMILES | 5HT2A Antagonist mean @ 10 μM (%)
COc1ccc2c(ccn2CCN2CCCC2)c1 [Example 44, 5-methoxy-1-(2-(pyrrolidin-1-yl)ethyl)-1H-indole] | A (inhibits 5HT response by >100%)
COc1ccc2c(ccn2CCN2CCCCC2)c1 [Example 45, 5-methoxy-1-(2-(piperidin-1-yl)ethyl)-1H-indole] | B (inhibits 5HT response by 75% to 100%)
COc1ccc2c(ccn2CCN2CCOCC2)c1 [Example 46, 4-(2-(5-methoxy-1H-indol-1-yl)ethyl)morpholine] | A (inhibits 5HT response by >100%)

Same assay, conditions: 100 μM compound; relative to 5-HT at 100 nM

SMILES | 5HT2A Antagonist mean @ 100 μM (%)
COc1ccc2c(ccn2CCN2CCCC2)c1 [Example 44, 5-methoxy-1-(2-(pyrrolidin-1-yl)ethyl)-1H-indole] | A (inhibits 5HT response by >100%)
COc1ccc2c(ccn2CCN2CCCCC2)c1 [Example 45, 5-methoxy-1-(2-(piperidin-1-yl)ethyl)-1H-indole] | A (inhibits 5HT response by >100%)
COc1ccc2c(ccn2CCN2CCOCC2)c1 [Example 46, 4-(2-(5-methoxy-1H-indol-1-yl)ethyl)morpholine] | A (inhibits 5HT response by >100%)

The compounds below were run against T1, 5HT2A (Homo sapiens, UniProt P28223) (assay: Calcium flux assay (Calcium secondary messenger pathway)). Details: agonist mode.
T1 construct: expressed in transfected cells
T1 sequence (P28223 whole entry): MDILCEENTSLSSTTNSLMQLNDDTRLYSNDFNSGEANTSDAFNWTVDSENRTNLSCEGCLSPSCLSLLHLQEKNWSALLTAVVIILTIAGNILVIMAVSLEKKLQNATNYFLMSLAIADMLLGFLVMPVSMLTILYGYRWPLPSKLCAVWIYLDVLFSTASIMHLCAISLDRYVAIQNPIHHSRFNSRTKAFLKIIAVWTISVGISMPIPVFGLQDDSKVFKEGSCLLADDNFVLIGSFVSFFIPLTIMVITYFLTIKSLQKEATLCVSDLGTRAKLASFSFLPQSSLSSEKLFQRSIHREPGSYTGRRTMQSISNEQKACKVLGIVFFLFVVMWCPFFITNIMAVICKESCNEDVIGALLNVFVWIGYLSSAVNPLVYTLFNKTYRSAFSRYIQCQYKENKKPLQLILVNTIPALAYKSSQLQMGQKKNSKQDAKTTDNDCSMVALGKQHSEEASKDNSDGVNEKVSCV
Type: cell-based
Text: Calcium Flux Assay. Calcium Secondary Messenger Pathway. The Calcium No Wash^PLUS assay monitors the activation of a GPCR (e.g., 5HT2A) via Gq secondary messenger signaling in a live cell, non-imaging assay format. Calcium mobilization in PathHunter® cell lines or other cell lines stably expressing Gq-coupled GPCRs (e.g., 5HT2A) is monitored using a calcium-sensitive dye that is loaded into cells. GPCR (e.g., 5HT2A) activation by a compound results in the release of calcium from intracellular stores and an increase in dye fluorescence that is measured in real-time. In some embodiments, the ability of a compound of the present invention to modulate 5-HT2A function is determined using a calcium flux assay. In some embodiments, a compound of the present invention activates a calcium flux assay.
Calcium Secondary Messenger Pathway. Cell lines were expanded from freezer stocks according to standard procedures. Cells were seeded in a total volume of 20 μL into black-walled, clear-bottom, Poly-D-lysine coated 384-well microplates and incubated at 37° C. for the appropriate time prior to testing. Assays were performed in 1× Dye Loading Buffer consisting of 1× Dye, 1× Additive A and 2.5 mM Probenecid in HBSS/20 mM Hepes. Probenicid was prepared fresh. Cells were loaded with dye prior to testing. Media was aspirated from cells and replaced with 20 μL Dye Loading Buffer. Cells were incubated for 30-60 minutes at 37° C.
For agonist determination, cells were incubated with sample to induce response. After dye loading, cells were removed from the incubator and 10 μL HBSS/20 mM Hepes was added. 3× vehicle was included in the buffer when performing agonist dose curves to define the EC80 for subsequent antagonist assays. Cells were incubated for 30 minutes at room temperature in the dark to equilibrate plate temperature. Intermediate dilution of sample stocks was performed to generate 4× sample in assay buffer. Compound agonist activity was measured on a FLIPR Tetra (MDS). Calcium mobilization was monitored for 2 minutes and 10 μL 4× sample in HBSS/20 mM Hepes was added to the cells 5 seconds into the assay.
Compound activity was analyzed using CBIS data analysis suite (ChemInnovation, CA). For agonist mode assays, percentage activity is calculated using the following formula: % Activity=100%×(mean RFU of test sample−mean RFU of vehicle control)/(mean MAX RFU control ligand−mean RFU of vehicle control).

SMILES | pEC50
COc1ccc2c(ccn2CCN2CCCC2)c1 [Example 44, 5-methoxy-1-(2-(pyrrolidin-1-yl)ethyl)-1H-indole] | < 5.00
COc1ccc2c(ccn2CCN2CCCCC2)c1 [Example 45, 5-methoxy-1-(2-(piperidin-1-yl)ethyl)-1H-indole] | < 5.00
COc1ccc2c(ccn2CCN2CCOCC2)c1 [Example 46, 4-(2-(5-methoxy-1H-indol-1-yl)ethyl)morpholine] | < 5.00
